Results on 14 molecules are retold here after patent US20250368650A1, “5-(4-FLUOROPHENYL)-2,3-DIHYDRO-1H-IMIDAZO[1,2-A]IMIDAZOLE DERIVATIVES AS ALK INHIBITORS FOR THE TREATMENT OF FIBROSIS” (CHIESI FARMACEUTICI S.P.A., priority 2022, published 2025).

Counter-ions that a name gives are not always drawn. A value given as a limit tells only on which side of the number the result lay.

For the assay, the target named is human ALK5 (Homo sapiens (Human), UniProt P36897). Nature of the assay: ADP-GLO Kinases assay, ALK5 enzymatic activity. The format is biochemical. Particulars: purified recombinant human ALK5 2.6 nM, TGFβ1 peptide 94.5 μM, ATP 0.83 μM, 120 min, 25° C.; pIC50 converted to pKi using the Cheng-Prusoff equation. On the procedure: The enzymatic activity of compounds of the present invention was monitored measuring the formation of ADP using the ADP-GLO Kinases assay. Following the incubation of the purified enzyme, a substrate and ATP, the produced ADP was converted into ATP, which in turn was converted into light by Ultra-Glo Luciferase. The luminescent signal positively correlated with ADP amount and kinase activity. Briefly, the kinase reaction was performed by incubating 2.6 nM of the purified, commercially available human ALK5 (recombinant TGF β1 N-term GST-tagged, 80-end), a final concentration of TGFβ1 peptide 94.5 μM (Promega, T36-58) and ultra-pure ATP (Promega V915B). The ATP concentration was set at the Km value (concentration of substrate which permits the enzyme to achieve half maximal velocity (Vmax)) of ALK5 (0.5 μM). Compound and ALK5 kinase were mixed and incubated for 15 min. Reactions were initiated by addition of ATP at a final concentration in the assay of 0.83 μM. After an incubation of 120 min, the reaction was stopped, and ADP production detected with ADP-Glo kit according to manufacturer's indications. All reaction and incubation steps were performed at 25° C. and the assays were performed in 384-well format and validated using a selection of reference compounds tested in 11-point concentration-response curve.
Results were expressed as pIC50 (negative logarithm of IC50) and subsequently converted to pKi (negative logarithm of […]) using the Cheng-Prusoff equation. The higher the value of pKi, the greater the inhibition of ALK5 activity.

Sequence of human ALK5 (P36897 80-503 limits assumed): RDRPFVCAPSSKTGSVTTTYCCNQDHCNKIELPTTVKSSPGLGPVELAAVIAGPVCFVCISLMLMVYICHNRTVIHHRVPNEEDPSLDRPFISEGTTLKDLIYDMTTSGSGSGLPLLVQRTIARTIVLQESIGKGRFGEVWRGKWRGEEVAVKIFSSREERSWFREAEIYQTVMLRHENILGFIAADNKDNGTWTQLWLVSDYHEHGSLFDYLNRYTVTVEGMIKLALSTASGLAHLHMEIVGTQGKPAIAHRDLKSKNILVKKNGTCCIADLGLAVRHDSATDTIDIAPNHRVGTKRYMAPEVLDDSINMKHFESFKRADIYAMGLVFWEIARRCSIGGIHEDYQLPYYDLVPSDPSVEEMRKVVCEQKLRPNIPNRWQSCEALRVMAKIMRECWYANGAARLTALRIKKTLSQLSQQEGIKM

For the molecule `Cc1cccc(-c2nc3n(c2-c2ccc(F)c(NC(=O)CCN4CCN(C)CC4)c2)CCN3)n1` [Example 1, N-(2-fluoro-5-(6-(6-methylpyridin-2-yl)-2,3-dihydro-1H-imidazo[1,2-a]imidazol-5-yl)phenyl)-3-(4-methylpiperazin-1-yl)propanamide], the Ki is 1.26 to 7.94 nM.

As to `Cc1cccc(-c2nc3n(c2-c2ccc(F)c(NC(=O)CCN4CCCCC4)c2)CCN3)n1` [Example 2, N-(2-fluoro-5-(6-(6-methylpyridin-2-yl)-2,3-dihydro-1H-imidazo[1,2-a]imidazol-5-yl)phenyl)-3-(piperidin-1-yl)propanamide], the “ALK5 pKi” value is reported as at least 9.0.

Regarding `Cc1cccc(-c2nc3n(c2-c2ccc(F)c(NC(=O)CCN4CCN(CCO)CC4)c2)CCN3)n1` [Example 3, N-(2-fluoro-5-(6-(6-methylpyridin-2-yl)-2,3-dihydro-1H-imidazo[1,2-a]imidazol-5-yl)phenyl)-3-(4-(2-hydroxyethyl)piperazin-1-yl)propanamide], the Ki was 1.26 to 7.94 nM.

Turning to `Cc1cccc(-c2nc3n(c2-c2ccc(F)c(NC(=O)CCN4CCN(CC(F)(F)F)CC4)c2)CCN3)n1` [Example 4, N-(2-fluoro-5-(6-(6-methylpyridin-2-yl)-2,3-dihydro-1H-imidazo[1,2-a]imidazol-5-yl)phenyl)-3-(4-(2,2,2-trifluoroethyl)piperazin-1-yl)propanamide], the Ki was 1.26 to 7.94 nM.

As to `Cc1cccc(-c2nc3n(c2-c2ccc(F)c(NC(=O)CN(C)C)c2)CCN3)n1` [Example 5, 2-(Dimethylamino)-N-(2-fluoro-5-(6-(6-methylpyridin-2-yl)-2,3-dihydro-1H-imidazo[1,2-a]imidazol-5-yl)phenyl)acetamide], the Ki is 10 to 31.6 nM.

Regarding `Cc1cccc(-c2nc3n(c2-c2ccc(F)c(NC(=O)CN4CCN(C)CC4)c2)CCN3)n1` [Example 6, N-(2-fluoro-5-(6-(6-methylpyridin-2-yl)-2,3-dihydro-1H-imidazo[1,2-a]imidazol-5-yl)phenyl)-2-(4-methylpiperazin-1-yl)acetamide], the Ki was 10 to 31.6 nM.

For the molecule `Cc1cccc(-c2nc3n(c2-c2ccc(F)c(NC(=O)CCCN4CCN(C)CC4)c2)CCN3)n1` [Example 7, N-(2-fluoro-5-(6-(6-methylpyridin-2-yl)-2,3-dihydro-1H-imidazo[1,2-a]imidazol-5-yl)phenyl)-4-(4-methylpiperazin-1-yl)butanamide], the Ki is 1.26 to 7.94 nM.

For `CN1CCN(CCC(=O)Nc2cc(-c3c(-c4cc(Cl)ccc4F)nc4n3CCN4)ccc2F)CC1` [Example 8, N-(5-(6-(5-chloro-2-fluorophenyl)-2,3-dihydro-1H-imidazo[1,2-a]imidazol-5-yl)-2-fluorophenyl)-3-(4-methylpiperazin-1-yl)propanamide], the Ki is 1.26 to 7.94 nM.

Regarding `Cc1cccc(-c2nc3n(c2-c2ccc(F)c(NC(=O)CCN(C)C)c2)CCN3)n1` [Example 9, 3-(Dimethylamino)-N-(2-fluoro-5-(6-(6-methylpyridin-2-yl)-2,3-dihydro-1H-imidazo[1,2-a]imidazol-5-yl)phenyl)propanamide], the Ki is at most 1 nM.

With `O=C(CCN1CCCCC1)Nc1cc(-c2c(-c3cc(Cl)ccc3F)nc3n2CCN3)ccc1F` [Example 10, N-(5-(6-(5-chloro-2-fluorophenyl)-2,3-dihydro-1H-imidazo[1,2-a]imidazol-5-yl)-2-fluorophenyl)-3-(piperidin-1-yl)propanamide], the Ki was at most 1 nM.

In the case of `Cc1cccc(-c2nc3n(c2-c2ccc(F)c(NC(=O)CCCN4CCCCC4)c2)CCN3)n1` [Example 11, N-(2-fluoro-5-(6-(6-methylpyridin-2-yl)-2,3-dihydro-1H-imidazo[1,2-a]imidazol-5-yl)phenyl)-4-(piperidin-1-yl)butanamide], the Ki was 1.26 to 7.94 nM.

Regarding `Cc1cccc(-c2nc3n(c2-c2ccc(F)c(NC(=O)CCC[N+]4(C)CCCCC4)c2)CCN3)n1` [Example 12, 1-(4-((2-Fluoro-5-(6-(6-methylpyridin-2-yl)-2,3-dihydro-1H-imidazo[1,2-a]imidazol-5-yl)phenyl)amino)-4-oxobutyl)-1-methylpiperidin-1-ium chloride hydrochloride], the Ki is 1.26 to 7.94 nM.

Take `Cc1cccc(-c2nc3n(c2-c2ccc(F)c(NC4CCN(C(C)C)CC4)c2)CCN3)n1` [Example 13, N-(2-fluoro-5-(6-(6-methylpyridin-2-yl)-2,3-dihydro-1H-imidazo[1,2-a]imidazol-5-yl)phenyl)-1-isopropylpiperidin-4-amine]: the Ki was 10 to 31.6 nM.

For `Cc1cccc(-c2nc3n(c2-c2ccc(F)c(NCC4CCN(C)CC4)c2)CCN3)n1` [Example 14, 2-Fluoro-N-((1-methylpiperidin-4-yl)methyl)-5-(6-(6-methylpyridin-2-yl)-2,3-dihydro-1H-imidazo[1,2-a]imidazol-5-yl)aniline], the Ki was 1.26 to 7.94 nM.
